Test results reported in ChEMBL document CHEMBL2385030, “Crystallographic Investigation and Selective Inhibition of Mutant Isocitrate Dehydrogenase” (ACS Med Chem Lett, 2013).
pEC50, pKi: −log10 of the molar value.

Assays:
WI-38 = assay: Cytotoxicity against human WI38 cells assessed as growth inhibition after 48 hrs by MTS assay; assay type: cell-based; conditions: WI-38, 48 h
[1] = target: Isocitrate dehydrogenase [NADP] cytoplasmic (Homo sapiens, UniProt O75874); assay: Inhibition of wild type IDH1 (unknown origin) expressed in Escherichia coli BL21 using […] as substrate incubated for 5 mins prior to substrate addition measured every 30 secs
Isocitrate dehydrogenase [NADP] cytoplasmic, sequence (O75874 whole entry): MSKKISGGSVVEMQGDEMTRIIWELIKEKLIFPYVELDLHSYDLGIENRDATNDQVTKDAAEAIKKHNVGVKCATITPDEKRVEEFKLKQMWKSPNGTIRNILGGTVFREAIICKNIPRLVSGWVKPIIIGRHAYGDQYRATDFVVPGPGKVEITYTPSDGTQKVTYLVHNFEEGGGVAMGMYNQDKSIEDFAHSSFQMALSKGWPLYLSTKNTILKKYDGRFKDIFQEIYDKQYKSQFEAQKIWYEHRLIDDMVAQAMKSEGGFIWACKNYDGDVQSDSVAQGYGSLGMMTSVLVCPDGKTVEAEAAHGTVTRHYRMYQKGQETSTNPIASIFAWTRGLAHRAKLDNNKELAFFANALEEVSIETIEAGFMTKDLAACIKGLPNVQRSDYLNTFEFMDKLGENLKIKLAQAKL

Row | pKi [1] | Structure (SMILES) | pEC50 (WI-38)
1 |  | Cc1cc(Cc2ccccc2)n(O)c(=O)c1 | < 4.30
2 |  | Cc1cc(Cc2ccc(O)cc2)n(O)c(=O)c1 | < 4.30
3 |  | O=c1cccc(Cc2ccccc2)n1O | < 4.30
4 |  | CC(C)c1cc(Cc2ccccc2)n(O)c(=O)c1 | < 4.30
5 | < 4.30 | Cc1cc(-c2ccccc2)n(O)c(=O)c1 | 
